# Measured values reported in article doi:10.64898/2025.12.15.694443v1 (biorxiv, 2025).
# Legend:
# [1] = biological target: T1, ARAF^SSDD (ARAF^SSDD/MEK1) (Homo sapiens, UniProt P10398, G300S/Y301D/Y302D); assay: TR-FRET MEK phosphorylation assay, bell-shaped fit; format: biochemical
# [2] = biological target: T1, ARAF^SSDD (ARAF^SSDD/MEK1); assay: biochemical
# [3] = biological target: T2, CRAF^SSDD (CRAF^SSDD/MEK1) (Homo sapiens, UniProt P04049, Y340D/Y341D); assay: TR-FRET MEK phosphorylation assay, bell-shaped fit; format: biochemical
# [4] = biological target: T2, CRAF^SSDD (CRAF^SSDD/MEK1); assay: biochemical
# [5] = biological target: T3, CRAF monomer complex (CRAF/MEK1 SASA) (Homo sapiens, UniProt P04049); assay: TR-FRET MEK phosphorylation assay, bell-shaped fit; format: biochemical
# [6] = biological target: BRAF monomer complex (BRAF/MEK1 SASA) (Homo sapiens, UniProt P15056); assay: TR-FRET MEK phosphorylation assay, bell-shaped fit; format: biochemical; conditions: […] enzyme, […] ATP, […] MEK-B, […] DMSO; unreliable
# [7] = biological target: T4, ARAF monomer complex (ARAF/MEK1 SASA) (Homo sapiens, UniProt P10398); assay: TR-FRET MEK phosphorylation assay, bell-shaped fit; format: biochemical
# [8] = biological target: T4, ARAF monomer complex (ARAF/MEK1 SASA); assay: TR-FRET MEK phosphorylation assay, bell-shaped fit; format: biochemical; remark: listed apart in the source
# [9] = biological target: T3, CRAF monomer complex (CRAF/MEK1 SASA); assay: TR-FRET MEK phosphorylation assay, bell-shaped fit; format: biochemical; remark: listed apart in the source
# T2 sequence (P04049 314-618 Y340D/Y341D): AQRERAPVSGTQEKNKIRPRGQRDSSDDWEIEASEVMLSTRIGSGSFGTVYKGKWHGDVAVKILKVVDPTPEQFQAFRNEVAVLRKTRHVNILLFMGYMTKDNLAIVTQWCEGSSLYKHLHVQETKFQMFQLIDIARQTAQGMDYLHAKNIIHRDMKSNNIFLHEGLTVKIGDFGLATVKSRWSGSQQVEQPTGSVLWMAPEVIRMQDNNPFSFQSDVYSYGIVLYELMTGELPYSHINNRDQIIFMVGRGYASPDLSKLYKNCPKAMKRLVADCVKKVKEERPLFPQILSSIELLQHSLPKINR
# T2 sequence (Q02750 whole entry S218A/S222A partner): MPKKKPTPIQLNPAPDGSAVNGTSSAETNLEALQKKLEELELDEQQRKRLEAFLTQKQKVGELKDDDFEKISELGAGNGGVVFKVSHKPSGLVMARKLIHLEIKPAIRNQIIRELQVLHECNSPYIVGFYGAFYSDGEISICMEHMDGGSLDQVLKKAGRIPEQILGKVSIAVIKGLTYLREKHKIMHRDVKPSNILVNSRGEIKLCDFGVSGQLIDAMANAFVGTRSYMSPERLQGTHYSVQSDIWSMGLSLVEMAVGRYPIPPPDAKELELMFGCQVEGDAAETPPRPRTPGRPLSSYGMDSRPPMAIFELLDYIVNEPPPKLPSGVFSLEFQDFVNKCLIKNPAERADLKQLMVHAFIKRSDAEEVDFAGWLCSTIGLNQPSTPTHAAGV
# T1 sequence (P10398 274-606 G300S/Y301D/Y302D): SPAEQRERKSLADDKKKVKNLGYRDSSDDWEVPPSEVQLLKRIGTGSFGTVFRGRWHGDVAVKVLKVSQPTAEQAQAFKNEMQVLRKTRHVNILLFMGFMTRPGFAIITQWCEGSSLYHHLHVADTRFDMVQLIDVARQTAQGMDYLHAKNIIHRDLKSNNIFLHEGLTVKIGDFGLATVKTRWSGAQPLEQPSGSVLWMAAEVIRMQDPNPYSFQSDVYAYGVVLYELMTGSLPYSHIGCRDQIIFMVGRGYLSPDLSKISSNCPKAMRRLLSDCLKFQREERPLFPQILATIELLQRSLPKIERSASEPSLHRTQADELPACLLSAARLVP
# T1 sequence (Q02750 whole entry S218A/S222A partner): as the sequence (Q02750 whole entry S218A/S222A partner) above
# T4 sequence (P10398 282-579): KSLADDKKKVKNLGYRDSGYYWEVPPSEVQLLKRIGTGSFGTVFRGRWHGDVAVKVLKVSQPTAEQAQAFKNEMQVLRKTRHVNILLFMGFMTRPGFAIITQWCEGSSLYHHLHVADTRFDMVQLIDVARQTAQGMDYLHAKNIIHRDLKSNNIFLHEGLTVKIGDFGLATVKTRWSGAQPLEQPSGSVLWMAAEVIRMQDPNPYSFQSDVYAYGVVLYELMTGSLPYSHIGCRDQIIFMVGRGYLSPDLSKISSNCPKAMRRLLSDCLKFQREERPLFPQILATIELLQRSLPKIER
# T4 sequence (Q02750 whole entry S218A/S222A partner): as the sequence (Q02750 whole entry S218A/S222A partner) above
# T3 sequence (P04049 324-618): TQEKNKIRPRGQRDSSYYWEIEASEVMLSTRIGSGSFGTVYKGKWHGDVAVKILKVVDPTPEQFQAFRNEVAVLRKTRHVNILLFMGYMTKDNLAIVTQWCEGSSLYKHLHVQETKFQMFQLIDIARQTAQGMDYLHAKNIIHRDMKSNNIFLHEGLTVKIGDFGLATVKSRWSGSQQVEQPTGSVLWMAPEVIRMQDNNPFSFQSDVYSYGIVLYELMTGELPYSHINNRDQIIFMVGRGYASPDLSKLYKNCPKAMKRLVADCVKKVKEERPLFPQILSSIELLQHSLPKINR
# T3 sequence (Q02750 whole entry S218A/S222A partner): as the sequence (Q02750 whole entry S218A/S222A partner) above
# Sequence of BRAF monomer complex (BRAF/MEK1 SASA) (P15056 445-723): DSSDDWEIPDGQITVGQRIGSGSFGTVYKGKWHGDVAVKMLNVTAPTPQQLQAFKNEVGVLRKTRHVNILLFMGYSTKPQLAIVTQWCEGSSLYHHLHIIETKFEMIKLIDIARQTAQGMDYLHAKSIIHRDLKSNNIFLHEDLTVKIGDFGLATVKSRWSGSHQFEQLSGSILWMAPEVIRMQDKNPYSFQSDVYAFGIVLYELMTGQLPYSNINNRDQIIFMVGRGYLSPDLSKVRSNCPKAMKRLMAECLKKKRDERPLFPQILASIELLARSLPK
# Sequence of BRAF monomer complex (BRAF/MEK1 SASA) (Q02750 whole entry S218A/S222A partner): as the sequence (Q02750 whole entry S218A/S222A partner) above
IC50 [1] [nM],AC50 [2] [nM],IC50 [3] [nM],AC50 [4] [nM],IC50 [5] [nM],IC50 [6] [nM],AC50 [7] [nM],IC50 [8] [nM],AC50 [9] [nM],Structure (SMILES)
44.4 ± 17.6,1.72 ± 1.24,,,,,,,,Cc1ccc(NC(=O)c2cccc(C(C)(C)C#N)c2)cc1Nc1ccc2ncn(C)c(=O)c2c1 [AZ628]
,,34.6 ± 5.15,0.07 ± 0.06,,,,,,Cc1ccc2c(Nc3cccc(Cl)c3F)nccc2c1NC(=O)c1csc2c(N)ncnc12 [Belvarafenib]
673 ± 488,13.3 ± 5.15,79.2 ± 24.1,0.06 ± 0.04,,,,,,Cc1ccc(NC(=O)c2ccnc(C(F)(F)F)c2)cc1-c1cc(OCCO)nc(N2CCOCC2)c1 [Naporafenib]
> 10000,7.62 ± 2.83,> 10000,3.46 ± 1.49,> 10000,1915 ± 889,11.7 ± 14.3,> 10000,242 ± 19.5,CN(C)CCOc1ccc(-c2nc(-c3ccncc3)c(-c3ccc4c(c3)CC/C4=N\O)[nH]2)cc1 [SB590885]
